Legend:
Assay type in all cases: cell-based
Adenosine receptor A2a = Adenosine receptor A2a (Homo sapiens, UniProt P29274); experiment: Displacement of [3H]CGS21680 from human adenosine A2A receptor expressed in HEK293 cells at 10 uM
[1] = target: T1, Adenosine receptor A3 (Homo sapiens) (UniProt P0DMS8); experiment: Displacement of [125I]I-AB-MECA from human adenosine A3 receptor expressed in CHO cells at 10 uM
T1 sequence (whole entry): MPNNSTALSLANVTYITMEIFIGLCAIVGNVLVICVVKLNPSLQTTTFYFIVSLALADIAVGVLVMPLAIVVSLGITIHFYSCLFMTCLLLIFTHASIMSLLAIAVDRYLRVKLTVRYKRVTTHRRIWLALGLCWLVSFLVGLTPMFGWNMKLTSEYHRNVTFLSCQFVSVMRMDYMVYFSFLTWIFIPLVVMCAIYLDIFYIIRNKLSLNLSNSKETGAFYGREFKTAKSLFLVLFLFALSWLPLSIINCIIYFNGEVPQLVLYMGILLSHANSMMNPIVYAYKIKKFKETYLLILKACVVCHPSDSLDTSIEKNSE

[2] = target: T2, Adenosine receptor A1 (Homo sapiens) (UniProt P30542); experiment: Displacement of [3H]CCPA from human adenosine A1 receptor expressed in CHO cells at 10 uM
T2 sequence (whole entry): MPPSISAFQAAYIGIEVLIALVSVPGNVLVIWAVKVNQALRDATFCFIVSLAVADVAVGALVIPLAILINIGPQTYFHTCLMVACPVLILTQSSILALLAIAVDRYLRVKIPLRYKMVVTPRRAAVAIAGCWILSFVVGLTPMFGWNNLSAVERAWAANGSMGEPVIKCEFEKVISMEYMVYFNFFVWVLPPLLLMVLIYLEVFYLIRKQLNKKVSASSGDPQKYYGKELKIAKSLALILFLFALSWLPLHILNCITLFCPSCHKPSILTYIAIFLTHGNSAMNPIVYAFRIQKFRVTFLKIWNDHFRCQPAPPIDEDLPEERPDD

Adenosine receptor A3 = target: T3, Adenosine receptor A3 (Homo sapiens, UniProt P0DMS8); experiment: Displacement of [125I]I-AB-MECA from human adenosine A3 receptor expressed in CHO cells
T3 sequence (P0DMS8 whole entry): T1 sequence (whole entry)

Adenosine receptor A2a, sequence (P29274 whole entry): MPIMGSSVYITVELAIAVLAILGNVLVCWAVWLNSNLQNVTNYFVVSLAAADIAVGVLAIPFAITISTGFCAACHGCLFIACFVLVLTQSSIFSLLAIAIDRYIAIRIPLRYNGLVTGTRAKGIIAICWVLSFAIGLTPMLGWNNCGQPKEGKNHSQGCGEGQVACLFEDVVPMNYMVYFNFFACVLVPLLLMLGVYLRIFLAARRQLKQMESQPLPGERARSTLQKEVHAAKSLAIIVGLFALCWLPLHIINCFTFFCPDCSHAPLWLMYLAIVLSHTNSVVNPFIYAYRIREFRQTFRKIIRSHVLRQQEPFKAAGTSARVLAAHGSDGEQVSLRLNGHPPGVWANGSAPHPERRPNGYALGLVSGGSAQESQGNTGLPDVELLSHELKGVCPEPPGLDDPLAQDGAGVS

| Structure (SMILES) | Ki (Adenosine receptor A2a) [µM] | inhibition [1] [%] | inhibition [2] [%] | Ki (Adenosine receptor A3) [µM] |
| --- | --- | --- | --- | --- |
| CC(C)Oc1ccc(CCCn2ncc3c2nc(N)n2nc(-c4ccco4)nc32)cc1 | 0.0133 | 72.8 | 35 |  |
| Nc1nc2c(cnn2CCCc2ccc(O/C=C/c3ccccc3)cc2)c2nc(-c3ccco3)nn12 | 0.308 | 17.8 | 7.3 |  |
| CCC(C)Oc1ccc(CCCn2ncc3c2nc(N)n2nc(-c4ccco4)nc32)cc1 (stereo not drawn) | 0.0221 | 41.9 | 16.8 |  |
| CS(=O)(=O)OCCOc1ccc(CCCn2ncc3c2nc(N)n2nc(-c4ccco4)nc32)cc1 | 0.0457 | 62.4 | 27.8 |  |
| Nc1nc2c(cnn2CCCc2ccc(OCCF)cc2)c2nc(-c3ccco3)nn12 | 0.0124 | 59.6 | 42.7 |  |
| Nc1nc2c(cnn2CCCc2ccc(OCCc3ccccc3)cc2)c2nc(-c3ccco3)nn12 | 0.0789 | 18.2 | 6.9 |  |
| CCCOc1ccc(CCCn2ncc3c2nc(N)n2nc(-c4ccco4)nc32)cc1 | 0.0117 | 36.5 | 17.9 |  |
| Nc1nc2c(cnn2CCCc2ccc(OCCO)cc2)c2nc(-c3ccco3)nn12 | 0.0239 | 57.8 | 47.9 |  |
| C=CCOc1ccc(CCCn2ncc3c2nc(N)n2nc(-c4ccco4)nc32)cc1 | 0.009 | 62.5 | 32.8 |  |
| Nc1nc2c(cnn2CCCc2ccc(O)cc2)c2nc(-c3ccco3)nn12 | 0.0483 | 34.2 | 44.3 |  |
| COc1ccc(CCCn2ncc3c2nc(N)n2nc(-c4ccco4)nc32)cc1 |  | 67.4 | 38.4 |  |
| CCOc1ccc(CCCn2ncc3c2nc(N)n2nc(-c4ccco4)nc32)cc1 | 0.0439 |  | 4.8 | 4.94 |
| C=CCCOc1ccc(CCCn2ncc3c2nc(N)n2nc(-c4ccco4)nc32)cc1 | 0.0144 | 44.8 | 25.5 |  |
